Test results from ChEMBL document CHEMBL1201862, “PubChem BioAssay data set” (2004).
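Cultured in 96-well plates, cells were exposed to test compound for 48 hours across five concentrations. GI50 marks 50% less growth.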 The source made the active and inactive calls. No stated cut-off is given here; in the data, active = GI50 up to about 1.1 µM and inactive = higher.

Experiments:
Assay in all cases: inhibition of tumour cell growth, NCI panel, 48 h
M19-MEL = test system: M19-MEL
DMS-273 = test system: DMS-273
RXF 631 = test system: RXF 631
SNB-78 = test system: SNB-78
KM-20L2 = test system: KM-20L2
XF498 = test system: XF498
DLD-1 = test system: DLD-1
HOP-18 = test system: HOP-18
DMS-114 = test system: DMS-114

Row | SMILES | GI50 (M19-MEL) | GI50 (DMS-273) | GI50 (RXF 631) | GI50 (SNB-78) | GI50 (KM-20L2) | GI50 (XF498) | GI50 (DLD-1) | GI50 (HOP-18) | GI50 (DMS-114)
1 | CC(=O)NNc1nc(C)c(C(/C=C/c2ccc(Cl)cc2)=N\N=C(N)N)s1 | > 100 µM (inactive) | > 100 µM (inactive) | > 100 µM (inactive) | > 100 µM (inactive) | > 100 µM (inactive) | > 100 µM (inactive) | > 100 µM (inactive) | – | –
2 | COc1cc2cc3c4c(cc(OC)c(OC)c4c2cc1OC)CCN3 | 12.9 µM (inactive) | 33.7 µM (inactive) | – | > 100 µM (inactive) | 27.5 µM (inactive) | > 100 µM (inactive) | 26.1 µM (inactive) | > 100 µM (inactive) | 36 µM (inactive)
3 | Cc1cc2c(=O)cc(-c3ccc(C(F)(F)F)cc3)oc2c(C(=O)O)c1C | > 100 µM (inactive) | > 100 µM (inactive) | > 100 µM (inactive) | > 100 µM (inactive) | > 100 µM (inactive) | > 100 µM (inactive) | > 100 µM (inactive) | > 100 µM (inactive) | > 100 µM (inactive)
4 | CC(=O)NC1=C(C)C(=O)c2c(nc3n2CCC3OC(=O)CCl)C1=O (stereo unspecified) | 12.5 µM (inactive) | 17.2 µM (inactive) | – | 2.96 µM (inactive) | – | – | 12.9 µM (inactive) | – | –
5 | CC#CC(=O)Nc1ccccc1CC(c1c[nH]c2ccccc12)c1c[nH]c2ccccc12 | 15.3 µM (inactive) | 16.2 µM (inactive) | – | 11.6 µM (inactive) | – | – | 16.6 µM (inactive) | – | 14.4 µM (inactive)
6 | O=CC1=CCC2c3[nH]c4ccccc4c3CCN2C1 (stereo unspecified) | 71.8 µM (inactive) | 82.4 µM (inactive) | – | – | 135 µM (inactive) | 72.3 µM (inactive) | 85.5 µM (inactive) | > 396 µM (inactive) | 74.3 µM (inactive)
7 | Clc1ccc(CCn2cncn2)c(Cl)c1 | > 100 µM (inactive) | > 100 µM (inactive) | – | > 100 µM (inactive) | > 100 µM (inactive) | – | > 100 µM (inactive) | 44.6 µM (inactive) | > 100 µM (inactive)
8 | O=C(O)C[C@@H](Cl)[C@H](NC(=O)OCc1ccccc1)C(=O)O | > 100 µM (inactive) | > 100 µM (inactive) | – | > 100 µM (inactive) | > 100 µM (inactive) | > 100 µM (inactive) | > 100 µM (inactive) | > 100 µM (inactive) | > 100 µM (inactive)
9 | C[C@@H](NS(=O)(=O)c1ccc(NC(=O)c2ccccc2)cc1)C(=O)O | > 100 µM (inactive) | > 100 µM (inactive) | – | – | > 100 µM (inactive) | > 100 µM (inactive) | > 100 µM (inactive) | > 100 µM (inactive) | –
10 | CCCCCCC1=NOC(C(c2cc[nH]c2)N(C)[C@H](C(=O)OC)C(C)C)C1 (stereo partly specified) | 32 µM (inactive) | 25.8 µM (inactive) | 36.6 µM (inactive) | 21.3 µM (inactive) | 39 µM (inactive) | 35.3 µM (inactive) | 34.1 µM (inactive) | 58.1 µM (inactive) | 33.3 µM (inactive)
11 | CC(=O)C1CCN(c2ccccc2)C1 (stereo unspecified) | > 100 µM (inactive) | > 100 µM (inactive) | – | > 100 µM (inactive) | > 10 µM (inactive) | > 100 µM (inactive) | > 100 µM (inactive) | – | > 100 µM (inactive)
12 | CCN(CC)CC(=O)NC1c2ccccc2Oc2c(C)cccc21 (stereo unspecified) | > 100 µM (inactive) | > 100 µM (inactive) | – | > 100 µM (inactive) | 55.7 µM (inactive) | 40 µM (inactive) | 81.3 µM (inactive) | – | > 100 µM (inactive)
13 | O=S(=O)(/C=C/c1ccc(Cl)cc1Cl)Cc1ccccc1CS(=O)(=O)/C=C/c1ccc(Cl)cc1Cl | 20.9 µM (inactive) | 10.2 µM (inactive) | – | > 100 µM (inactive) | > 100 µM (inactive) | 32.9 µM (inactive) | 29 µM (inactive) | – | 31.6 µM (inactive)
14 | N#CC12Cc3ccc4c(c3-c3cccc(c31)CCN2C(=O)c1ccccc1)OCO4 (stereo unspecified) | > 100 µM (inactive) | > 100 µM (inactive) | – | > 100 µM (inactive) | > 100 µM (inactive) | 45 µM (inactive) | > 100 µM (inactive) | > 100 µM (inactive) | > 100 µM (inactive)
15 | Oc1cc(-c2ccccn2)nc2ccc(Cl)cc12 | 24.8 µM (inactive) | – | – | 80.7 µM (inactive) | – | 21.5 µM (inactive) | 41.5 µM (inactive) | 57.5 µM (inactive) | –
16 | COC(=O)C(=O)C(C(=O)C(=O)Nc1cccc(C(C)=O)c1)c1nc2ccccc2nc1O (stereo unspecified) | > 100 µM (inactive) | > 100 µM (inactive) | > 100 µM (inactive) | – | > 100 µM (inactive) | – | > 100 µM (inactive) | > 100 µM (inactive) | > 100 µM (inactive)
17 | COC(=O)C12OCC34C(CC5C(C)C6=CC(=O)OC6=CC5(C)C3C(O)C1O)OC(=O)C(O)C24 (stereo unspecified) | 0.192 µM (active) | 0.178 µM (active) | – | 0.474 µM (active) | 0.957 µM (active) | – | – | 0.676 µM (active) | 0.859 µM (active)
18 | C[C@@H](CN1CC(=O)NC(=O)C1)N1CC(=O)NC(=O)C1 [DEXRAZOXANE] | 311 µM (inactive) | 218 µM (inactive) | – | 435 µM (inactive) | 123 µM (inactive) | 102 µM (inactive) | 424 µM (inactive) | 422 µM (inactive) | 70.5 µM (inactive)
19 | Cc1ccc(S(=O)(=O)N/N=C/c2oc(-c3ccccc3Cl)c(-c3ccccc3Cl)c2[N+](=O)[O-])cc1 | 23.3 µM (inactive) | – | 19.3 µM (inactive) | – | 15.4 µM (inactive) | – | 17.1 µM (inactive) | – | 17.3 µM (inactive)
20 | COC(=O)c1cccn1C(=O)n1cccc1 | > 100 µM (inactive) | > 100 µM (inactive) | – | > 100 µM (inactive) | > 100 µM (inactive) | > 100 µM (inactive) | > 100 µM (inactive) | > 100 µM (inactive) | > 100 µM (inactive)
21 | O=C1C2C(C(=O)N1c1ccccc1)C1(c3ccccc3)OC2(c2ccccc2)c2ccccc21 (stereo unspecified) | > 100 µM (inactive) | > 100 µM (inactive) | > 100 µM (inactive) | – | > 100 µM (inactive) | – | > 100 µM (inactive) | > 100 µM (inactive) | > 100 µM (inactive)
22 | N#CC(C(=O)CCC(=O)Nc1ccc(Cl)cc1)c1ccc(Cl)cc1 (stereo unspecified) | > 100 µM (inactive) | > 100 µM (inactive) | > 100 µM (inactive) | > 100 µM (inactive) | 11.5 µM (inactive) | > 100 µM (inactive) | 71.3 µM (inactive) | 97.3 µM (inactive) | > 100 µM (inactive)
23 | OCC(O)C(OC1OC(CO)C(O)C(O)C1O)c1nn(-c2ccc(Cl)cc2)c2nc3cc(Cl)c(Cl)cc3nc12 (stereo unspecified) | > 100 µM (inactive) | – | – | > 100 µM (inactive) | > 100 µM (inactive) | > 100 µM (inactive) | > 100 µM (inactive) | – | > 100 µM (inactive)
24 | CC1CC(C)CC(C)C(O)/C(C#N)=C/C=C/CC(C2CCCC2C(=O)O)OC(=O)CC(O)C(C)C1 (stereo unspecified) | 0.0202 µM (active) | 0.0164 µM (active) | 0.0317 µM (active) | 0.0223 µM (active) | 0.0362 µM (active) | < 0.0164 µM (active) | < 0.0122 µM (active) | 0.0189 µM (active) | < 0.01 µM (active)
25 | CCOC(=O)C12CCCC1(O)N(NC(=O)c1cccc(Cl)c1)C(C)=C2C(=O)OC (stereo unspecified) | > 100 µM (inactive) | 56.2 µM (inactive) | 55.7 µM (inactive) | – | > 100 µM (inactive) | > 100 µM (inactive) | > 100 µM (inactive) | – | > 100 µM (inactive)
26 | Cc1c(C(=O)CC(=O)C(=O)Nc2cc(Cl)ccc2Cl)[n+]([O-])c2ccccc2[n+]1[O-] | 25 µM (inactive) | 26.1 µM (inactive) | – | 50.1 µM (inactive) | 36.1 µM (inactive) | 51.3 µM (inactive) | – | 34.1 µM (inactive) | 25.9 µM (inactive)
27 | Nc1c(S(=O)(=O)c2ccccc2)c2nc3ccccc3nc2n2c1nc1ccccc12 | 29.8 µM (inactive) | 7.67 µM (inactive) | 16.9 µM (inactive) | 26.4 µM (inactive) | > 100 µM (inactive) | 11.8 µM (inactive) | > 86.1 µM (inactive) | – | > 69.3 µM (inactive)
